Assay results as given in US20030092077A1, “Human sperm activator peptides” (priority 2001, published 2003).

Tests used:
[1] = system: human sperm; test: Sperm chemotaxis assay with phage displaying the peptide (two-chamber apparatus); assay type: cell-based; conditions: 37° C. for 1 hr; for sperm count in the lower chamber: one experiment done in triplicate, phage displaying peptide
Method: (§1) Preparation of sperm: One tube (0.5 ml) of a sperm sample was thawed at room temperature for 15-20 mm. As soon as the sperm was thawed, 0.5 ml of Hams-F10 medium was added, and the sample transferred to a 5 ml culture tube. The sperm was diluted to 4 ml with Hams-F10 medium, mixed well, and centrifuged at 2000 rpm for 5 mm. The supernatant was decanted and the cells resuspended in 4 ml of fresh Hams-F 10 medium. The centrifugation was repeated and the clean sperm pellet resuspended in 1 ml Hams-F10 medium. A 50 μl sample aliquot was used per each assay condition.
Assay: The chambers of the assay apparatus were assembled with 8.iM membranes pre-wetted with Hams-F10 medium. A sample of phage containing a specific peptide sequence or a control peptide sequence was diluted with Hams-F10 medium to give a 100 ml phage containing solution which was placed in the bottom chamber of the apparatus. A sperm sample having at least 1×10^6 sperm was added to the upper chamber. After incubation 37° C. for 1 hr, the sample in the bottom chamber was collected into microfuge tubes and centrifuged at 6000 rpm for 5 mm. The supernatant was removed and the pellet resuspended in suitable volume to be counted in a hemocytometer.
Results: Various concentrations of phage containing the Husap peptide (TMGFTAPRFPHY; SEQ. ID. NO. 1), phage containing a control sequence (KSLSRHDHIHHH; SEQ. ID. NO. 20) or buffer without phage were used in the assays. Sperm counts 2-15 fold greater in the well containing the Husap peptide displaying phage were consistently obtained when compared to control phage or buffer-alone chambers. For example, in one experiment done in triplicate, the sperm count in the lower chamber was 76×10^4 for the Husap peptide compared to 5×10^4 for the control peptide and 21×10^4 for buffer alone.

[2] = system: human sperm; test: Effect of varying concentrations of Husap peptide on chemotaxis of human sperm; assay type: cell-based; conditions: 2.8×10^6 sperm in upper chamber, 5 micron membrane, 37° C. 1 h
Method: as §1
The effect of varying concentrations of the Husap peptide on chemotaxis of human sperm was also determined. Sperm at a concentration of 2.8×10^6 were added to the upper chamber. The peptide concentration in the lower chamber was varied from 0 μl to […] of peptide. Sperm were separated from the lower chamber by a 5 micron membrane filter. The chambers were incubated at 37° C. for 1 h. At the end of the incubation, sperm were collected from the lower chamber and counted in a hemocytometer. The experiment was performed several times with varying peptide concentrations and with 5 and 8 micron membranes.

| Substance | sperm count in the lower chamber [1] | Sperm counts, fold greater compared to control phage or buffer-alone chambers ([1]; phage displaying peptide in bottom chamber, various phage concentrations) | Sperm Count in Lower Chamber ([2]; HusaP concentration 10 uM) | Sperm Count in Lower Chamber ([2]; HusaP concentration 20 uM) | Sperm Count in Lower Chamber ([2]; HusaP concentration 100 uM) |
| --- | --- | --- | --- | --- | --- |
| KSLSRHDHIHHH [control peptide, reference compound] | 5×10^4 |  |  |  |  |
| NH2-Thr-Met-Gly-Phe-Thr-Ala-Pro-Arg-Phe-Pro-His-Tyr-COOH (H-TMGFTAPRFPHY-OH; listed as Homo sapiens) [Husap peptide, human sperm chemotactic peptide …] | 76×10^4 | 2-15 fold | 6 × 10^4 | 12 × 10^4 | 52 × 10^4 |
